From PubChem BioAssay (NCI)
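1) Cells in 96-well plates. 2) Compound, 48 h, 5 concentrations. 3) Linear interpolation between surrounding doses. 4) Unreached endpoint = highest concentration. TGI denotes the concentration required for complete inhibition of growth.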

What was measured:
Assay in all cases: NCI anticancer screen, dose series, 48 h
[1] = system: A549 NSCLC
[2] = system: DLD-1 colon
[3] = system: DMS 114 small cell lung
[4] = system: DMS 273 small cell lung
[5] = system: HOP-18 NSCLC
[6] = system: KM20L2 colon
[7] = system: LXFL 529 NSCLC
[8] = system: M19-MEL melanoma
[9] = system: RXF-631 renal
[10] = system: SF-539 CNS
[11] = system: SNB-75 CNS
[12] = system: SNB-78 CNS
[13] = system: XF 498 CNS

Measured: TGI

COC(=O)N/N=c1\cc(C(=O)Nc2ccc(C)c(C)c2)oc2cc(O)ccc12
> 100 µM: all assays above
